Patent US20230085307A1, “PYRIDAZINONE COMPOUND AND HERBICIDE” (NISSAN CHEMICAL CORPORATION, priority 2019, published 2023)

How the values were obtained:
late watergrass = test: Test Example 1: herbicidal activity, application before weed generation under submerged conditions (Table 16, symbol A); type: in vivo, late watergrass (Echinochloa oryzicola); details: 320 g/ha applied herbicide
In short: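 Alluvial soil was flooded to 4 cm depth, weed seeds were sown mixed and 2.5-leaf rice seedlings were transplanted. On sowing day, the compound's emulsion, diluted in water to a set dose, was applied to the water surface. Plants grew at 25–30 °C and were scored 0–5 after three weeks.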

Japanese bulrush = test: Test Example 2: herbicidal activity, application during weed generation under submerged conditions (Table 17, symbol B); type: in vivo, Japanese bulrush (Schoenoplectus juncoides); details: AAH 320 g/ha; application during weed generation, submerged conditions
In short: (§1)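 Effect on each weed is rated three weeks post-treatment, using the same scoring criteria as the preceding test. Plants grow from mixed-sown seed in flooded alluvial soil (4 cm water) at 25° C. to 30° C., and are treated at one to two leaves with diluted emulsion dropped onto the water.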

oval-leafed pondweed = test: Test Example 2: herbicidal activity, application during weed generation under submerged conditions (Table 17, symbol C); type: in vivo, oval-leafed pondweed (Monochoria vaginalis); details: AAH 320 g/ha; application during weed generation, submerged conditions
In short: as §1

southern crabgrass [1] = test: Test Example 4: herbicidal effect by soil treatment (Table 19, symbol F); type: in vivo, southern crabgrass (Digitaria ciliaris); details: amount of applied herbicide 320 g/ha
In short: (§2)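 Seeds were sown in sterilized diluvial soil and covered with about 1.5 cm of soil. An emulsion formulation diluted with water to a predetermined herbicide amount was sprayed evenly onto the soil surface. Plants grew in a greenhouse at 25° C. to 30° C., and the effect was scored three weeks after application using criteria from an earlier test.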

green foxtail = test: Test Example 4: herbicidal effect by soil treatment (Table 19, symbol G); type: in vivo, green foxtail (Setaria viridis); details: amount of applied herbicide 320 g/ha
In short: as §2

blackgrass = test: Test Example 4: herbicidal effect by soil treatment (Table 19, symbol J); type: in vivo, blackgrass (Alopecurus myosuroides); details: amount of applied herbicide 320 g/ha
In short: as §2

Italian ryegrass [2] = test: Test Example 4: herbicidal effect by soil treatment (Table 19, symbol K); type: in vivo, Italian ryegrass (Lolium multiflorum); details: amount of applied herbicide 320 g/ha
In short: as §2

redroot pigweed [3] = test: Test Example 4: herbicidal effect by soil treatment (Table 19, symbol N); type: in vivo, redroot pigweed (Amaranthus retroflexus); details: amount of applied herbicide 320 g/ha
In short: as §2

chickweed = test: Test Example 4: herbicidal effect by soil treatment (Table 19, symbol P); type: in vivo, common chickweed (Stellaria media); details: amount of applied herbicide 320 g/ha
In short: as §2

persian speedwell [4] = test: Test Example 4: herbicidal effect by soil treatment (Table 19, symbol R); type: in vivo, Persian speedwell (Veronica persica); details: amount of applied herbicide 320 g/ha
In short: as §2

southern crabgrass [5] = test: Test Example 5: herbicidal effect by foliage application, plastic box (Table 20, symbol F); type: in vivo, southern crabgrass (Digitaria ciliaris); details: foliage application, 320 g/ha, three weeks after application
In short: (§3)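 Plants sown in sterilized diluvial soil and grown 14 days in a greenhouse at 25° C to 30° C, then sprayed on the foliage with the compound's emulsion diluted in water to a predetermined herbicide amount. Injury to weeds and crops scored three weeks after application on a visual rating scale.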

barnyard grass = test: Test Example 5: herbicidal effect by foliage application, plastic box (Table 20, symbol H); type: in vivo, barnyard grass (Echinochloa crus-galli); details: foliage application, 320 g/ha, three weeks after application
In short: as §3

Italian ryegrass [6] = test: Test Example 5: herbicidal effect by foliage application, plastic box (Table 20, symbol K); type: in vivo, Italian ryegrass (Lolium multiflorum); details: foliage application, 320 g/ha, three weeks after application
In short: as §3

redroot pigweed [7] = test: Test Example 5: herbicidal effect by foliage application, plastic box (Table 20, symbol N); type: in vivo, redroot pigweed (Amaranthus retroflexus); details: foliage application, 320 g/ha, three weeks after application
In short: as §3

lambsquarters = test: Test Example 5: herbicidal effect by foliage application, plastic box (Table 20, symbol O); type: in vivo, lambsquarters (Chenopodium album); details: foliage application, 320 g/ha, three weeks after application
In short: as §3

persian speedwell [8] = test: Test Example 5: herbicidal effect by foliage application, plastic box (Table 20, symbol R); type: in vivo, Persian speedwell (Veronica persica); details: foliage application, 320 g/ha, three weeks after application
In short: as §3

Structure (SMILES)	Herbicidal effect on A: late watergrass (grade 0-5) (late watergrass)	herbicidal effect rating, B: Japanese bulrush (Japanese bulrush)	herbicidal effect rating, C: oval-leafed pondweed (oval-leafed pondweed)	herbicidal effect rating, F: southern crabgrass (southern crabgrass [1])	herbicidal effect rating, G: green foxtail (green foxtail)	herbicidal effect rating, J: blackgrass (blackgrass)	herbicidal effect rating, K: Italian ryegrass (Italian ryegrass [2])	herbicidal effect rating, N: redroot pigweed (redroot pigweed [3])	herbicidal effect rating, P: chickweed (chickweed)	herbicidal effect rating, R: persian speedwell (persian speedwell [4])	herbicidal effect grade, F: southern crabgrass (southern crabgrass [5])	herbicidal effect grade, H: barnyard grass (barnyard grass)	herbicidal effect grade, K: Italian ryegrass (Italian ryegrass [6])	herbicidal effect grade, N: redroot pigweed (redroot pigweed [7])	herbicidal effect grade, O: lambsquarters (lambsquarters)	herbicidal effect grade, R: persian speedwell (persian speedwell [8])
CCCOc1ccccc1-c1sc2ccccc2c1-c1c(O)c(C)nn(C)c1=O [1-015]	3 (Herbicidal rate of 40% or more and less than 70%)	1 (Herbicidal rate of 5% or more and less than 20%)	2 (Herbicidal rate of 20% or more and less than 40%)	3 (Herbicidal rate of 40% or more and less than 70%)	4 (Herbicidal rate of 70% or more and less than 90%)	4 (Herbicidal rate of 70% or more and less than 90%)	0 (Herbicidal rate of 5% or less (almost no effect))	0 (Herbicidal rate of 5% or less (almost no effect))	3 (Herbicidal rate of 40% or more and less than 70%)	4 (Herbicidal rate of 70% or more and less than 90%)	3 (Herbicidal rate of 40% or more and less than 70%)	3 (Herbicidal rate of 40% or more and less than 70%)	4 (Herbicidal rate of 70% or more and less than 90%)	3 (Herbicidal rate of 40% or more and less than 70%)	0 (Herbicidal rate of 5% or less (almost no effect))	5 (Herbicidal rate of 90% or more (almost completely withered))
Cc1nn(C)c(=O)c(-c2c(-c3ccccc3OC(F)(F)F)sc3ccccc23)c1O [1-030]	2 (Herbicidal rate of 20% or more and less than 40%)	3 (Herbicidal rate of 40% or more and less than 70%)	3 (Herbicidal rate of 40% or more and less than 70%)	5 (Herbicidal rate of 90% or more (almost completely withered))	4 (Herbicidal rate of 70% or more and less than 90%)	1 (Herbicidal rate of 5% or more and less than 20%)	3 (Herbicidal rate of 40% or more and less than 70%)	5 (Herbicidal rate of 90% or more (almost completely withered))	5 (Herbicidal rate of 90% or more (almost completely withered))	5 (Herbicidal rate of 90% or more (almost completely withered))	5 (Herbicidal rate of 90% or more (almost completely withered))	4 (Herbicidal rate of 70% or more and less than 90%)	4 (Herbicidal rate of 70% or more and less than 90%)	5 (Herbicidal rate of 90% or more (almost completely withered))	5 (Herbicidal rate of 90% or more (almost completely withered))	5 (Herbicidal rate of 90% or more (almost completely withered))
CCCC(=O)Oc1c(C)nn(C)c(=O)c1-c1c(-c2ccc(C(C)=NOC)cc2)sc2ccccc12 [1-044]	5 (Herbicidal rate of 90% or more (almost completely withered))	3 (Herbicidal rate of 40% or more and less than 70%)	1 (Herbicidal rate of 5% or more and less than 20%)	2 (Herbicidal rate of 20% or more and less than 40%)	4 (Herbicidal rate of 70% or more and less than 90%)	0 (Herbicidal rate of 5% or less (almost no effect))	2 (Herbicidal rate of 20% or more and less than 40%)	4 (Herbicidal rate of 70% or more and less than 90%)	5 (Herbicidal rate of 90% or more (almost completely withered))	5 (Herbicidal rate of 90% or more (almost completely withered))	4 (Herbicidal rate of 70% or more and less than 90%)	3 (Herbicidal rate of 40% or more and less than 70%)	4 (Herbicidal rate of 70% or more and less than 90%)	5 (Herbicidal rate of 90% or more (almost completely withered))	4 (Herbicidal rate of 70% or more and less than 90%)	5 (Herbicidal rate of 90% or more (almost completely withered))
Cc1cc(-c2sc3ccccc3c2-c2c(O)c(C)nn(C)c2=O)ccc1F [1-051]	4 (Herbicidal rate of 70% or more and less than 90%)	0 (Herbicidal rate of 5% or less (almost no effect))	0 (Herbicidal rate of 5% or less (almost no effect))	4 (Herbicidal rate of 70% or more and less than 90%)	5 (Herbicidal rate of 90% or more (almost completely withered))	0 (Herbicidal rate of 5% or less (almost no effect))	3 (Herbicidal rate of 40% or more and less than 70%)	4 (Herbicidal rate of 70% or more and less than 90%)	3 (Herbicidal rate of 40% or more and less than 70%)	4 (Herbicidal rate of 70% or more and less than 90%)	3 (Herbicidal rate of 40% or more and less than 70%)	3 (Herbicidal rate of 40% or more and less than 70%)	3 (Herbicidal rate of 40% or more and less than 70%)	5 (Herbicidal rate of 90% or more (almost completely withered))	3 (Herbicidal rate of 40% or more and less than 70%)	5 (Herbicidal rate of 90% or more (almost completely withered))
CCOc1cc(F)ccc1-c1sc2ccccc2c1-c1c(O)c(C)nn(C)c1=O [1-061]	3 (Herbicidal rate of 40% or more and less than 70%)	3 (Herbicidal rate of 40% or more and less than 70%)	4 (Herbicidal rate of 70% or more and less than 90%)	5 (Herbicidal rate of 90% or more (almost completely withered))	5 (Herbicidal rate of 90% or more (almost completely withered))	5 (Herbicidal rate of 90% or more (almost completely withered))	3 (Herbicidal rate of 40% or more and less than 70%)	4 (Herbicidal rate of 70% or more and less than 90%)	5 (Herbicidal rate of 90% or more (almost completely withered))	5 (Herbicidal rate of 90% or more (almost completely withered))	5 (Herbicidal rate of 90% or more (almost completely withered))	5 (Herbicidal rate of 90% or more (almost completely withered))	4 (Herbicidal rate of 70% or more and less than 90%)	5 (Herbicidal rate of 90% or more (almost completely withered))	4 (Herbicidal rate of 70% or more and less than 90%)	5 (Herbicidal rate of 90% or more (almost completely withered))
